Here are results for twelve compounds from PubChem BioAssay AID330 (DTP/NCI, 2004).

Several values for one entry are separate records, joined by “and”; a condition that tells them apart may be missing. Identical values can stand only once. Inconclusive results and toxic doses are left out.

For this experiment, the system named is P388 leukemia ip, CD2F1 mice, survival T/C. The experiment can be described thus: NCI In Vivo Anticancer Drug Screen. Data for tumor model P388 Leukemia (intraperitoneal) in CD2F1 (CDF1) mice. As to conditions: endpoint: median survival time, higher = longer survival. In short, it runs like this:
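Mice carrying the transplanted tumor received test compound or vehicle. Survival was recorded in each group, and the value is the treated-group measurement divided by that of the vehicle-treated control group.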

Setting [1] is: dose: 50.0 mg/kg/injection, schedule: Q01DX009 (ip), vehicle: saline with Tween-80.
[2] abbreviates: dose: 100.0 mg/kg/injection, schedule: Q01DX009 (ip), vehicle: saline with Tween-80.
[3] abbreviates: dose: 200.0 mg/kg/injection, schedule: Q01DX009 (ip), vehicle: saline with Tween-80.
Setting [4] is: dose: 100.0 mg/kg/injection, schedule: Q01DX009 (ip), vehicle: Klucel (hydroxypropylcellulose) (HPC).

As to `CCCN(CCC)C(=O)Cn1cc([N+](=O)[O-])s/c1=N/C(=O)NCC`, the T/C (dose: 25.0 mg/kg/injection, schedule: Q01DX001 (ip), vehicle: saline with Tween-80) is 97 % of control; the T/C (dose: 50.0 mg/kg/injection, schedule: Q01DX001 (ip), vehicle: saline with Tween-80) is 99 % of control; the T/C (dose: 100.0 mg/kg/injection, schedule: Q01DX001 (ip), vehicle: saline with Tween-80) is 106 % of control.

Regarding `O=C(c1ccccc1)c1ccccc1-c1ccccc1C(=O)c1ccccc1`, the T/C was 102 % of control under setting [1], 92 % of control under setting [2] and 87 % of control under setting [3].

Turning to `CS(C)(=O)=NS(=O)(=O)c1ccc([N+](=O)[O-])cc1`, the T/C is, setting by setting: (dose: 100.0 mg/kg/injection, schedule: Q04DX002 (ip), vehicle: Klucel (hydroxypropylcellulose) (HPC)) 100 % of control; (dose: 200.0 mg/kg/injection, schedule: Q04DX002 (ip), vehicle: Klucel (hydroxypropylcellulose) (HPC)) 95 % of control; (dose: 400.0 mg/kg/injection, schedule: Q04DX002 (ip), vehicle: Klucel (hydroxypropylcellulose) (HPC)) 96 % of control.

For the compound `NC(C/[N+]([O-])=N/O)C(=O)O` (stereo unspecified), the T/C reads like this: (dose: 8.78 mg/kg/injection, schedule: Q01DX010 (ip), vehicle: alkali diluted with saline) 119 % of control; (dose: 9.38 mg/kg/injection, schedule: Q01DX009 (ip), vehicle: alkali diluted with saline) 120 % of control; (dose: 13.2 mg/kg/injection, schedule: Q01DX010 (ip), vehicle: alkali diluted with saline) 124 % of control; (dose: 15.6 mg/kg/injection, schedule: Q01DX005 (ip), vehicle: saline with Tween-80) 124 % of control; (dose: 15.6 mg/kg/injection, schedule: Q01DX005 (iv), vehicle: saline with Tween-80) 107 % of control; (dose: 27.0 mg/kg/injection, schedule: Q01DX009 (ip), vehicle: alkali diluted with saline) 161 % of control. For the same compound, the T/C runs as follows: (dose: 30.0 mg/kg/injection, schedule: Q01DX005 (ip), vehicle: alkali diluted with saline) 161 % of control; (dose: 31.3 mg/kg/injection, schedule: Q01DX005 (iv), vehicle: saline with Tween-80) 103 % of control; (dose: 37.5 mg/kg/injection, schedule: Q01DX009 (ip), vehicle: alkali diluted with saline) 161 % of control and 162 % of control; (dose: 40.0 mg/kg/injection, schedule: Q01DX005 (ip), vehicle: alkali diluted with saline) 150 % of control; (dose: 40.0 mg/kg/injection, schedule: Q01DX009 (ip), vehicle: alkali diluted with saline) 165 % of control; (dose: 45.0 mg/kg/injection, schedule: Q01DX009 (ip), vehicle: alkali diluted with saline) 152 % of control and 166 % of control. Also, the T/C reads like this: (dose: 60.0 mg/kg/injection, schedule: Q01DX005 (ip), vehicle: alkali diluted with saline) 185 % of control; (dose: 62.5 mg/kg/injection, schedule: Q01DX005 (iv), vehicle: saline with Tween-80) 111 % of control; (dose: 62.5 mg/kg/injection, schedule: Q01DX009 (ip), vehicle: saline) 150 % of control; (dose: 62.5 mg/kg/injection, schedule: Q01DX009 (ip), vehicle: water) 163 % of control; (dose: 66.7 mg/kg/injection, schedule: Q01DX009 (ip), vehicle: alkali diluted with saline) 107 % of control; (dose: 75.0 mg/kg/injection, schedule: Q01DX009 (ip), vehicle: alkali diluted with water) 166 % of control. Further, the T/C reads like this: (dose: 80.0 mg/kg/injection, schedule: Q01DX005 (ip), vehicle: alkali diluted with saline) 182 % of control; (dose: 80.0 mg/kg/injection, schedule: Q01DX009 (ip), vehicle: alkali diluted with saline) 99 % of control; (dose: 100.0 mg/kg/injection, schedule: Q01DX010 (ip), vehicle: alkali diluted with saline) 92 % of control; (dose: 108.0 mg/kg/injection, schedule: Q04DX003 (ip), vehicle: alkali diluted with saline) 161 % of control; (dose: 112.5 mg/kg/injection, schedule: Q04DX003 (ip), vehicle: alkali diluted with saline) 150 % of control; (dose: 120.0 mg/kg/injection, schedule: Q01DX005 (ip), vehicle: alkali diluted with saline) 70 % of control. The T/C reads like this: (dose: 125.0 mg/kg/injection, schedule: Q01DX005 (ip), vehicle: saline with Tween-80) 157 % of control; (dose: 125.0 mg/kg/injection, schedule: Q01DX005 (iv), vehicle: saline with Tween-80) 107 % of control; (dose: 125.0 mg/kg/injection, schedule: Q01DX009 (ip), vehicle: alkali diluted with saline) 66 % of control and 86 % of control; (dose: 125.0 mg/kg/injection, schedule: Q01DX009 (ip), vehicle: saline) 154 % of control; (dose: 150.0 mg/kg/injection, schedule: Q01DX009 (ip), vehicle: alkali diluted with water) 96 % of control; (dose: 180.0 mg/kg/injection, schedule: Q04DX003 (ip), vehicle: alkali diluted with saline) 166 % of control. The T/C was 155 % of control (dose: 200.0 mg/kg/injection, schedule: Q04DX003 (ip), vehicle: alkali diluted with water); 178 % of control (dose: 225.0 mg/kg/injection, schedule: Q04DX003 (ip), vehicle: alkali diluted with saline); 175 % of control (dose: 300.0 mg/kg/injection, schedule: Q04DX003 (ip), vehicle: alkali diluted with saline); 115 % of control (dose: 450.0 mg/kg/injection, schedule: Q04DX003 (ip), vehicle: alkali diluted with saline); 198 % of control (dose: 500.0 mg/kg/injection, schedule: Q04DX003 (ip), vehicle: alkali diluted with saline).

Regarding `Oc1ccccc1/C=N/C(/N=C/c1ccccc1O)c1ccccc1O`, the T/C was 100 % of control under setting [1], 101 % of control under setting [2] and 100 % of control under setting [3].

With `Cc1cc(Nc2ccc3c(c2)OCO3)c2cc3c(cc2n1)OCO3`, the T/C was 105 % of control and 107 % of control (dose: 50.0 mg/kg/injection, schedule: Q01DX005 (ip), vehicle: Klucel (hydroxypropylcellulose) (HPC)); 116 % of control (dose: 100.0 mg/kg/injection, schedule: Q01DX005 (ip), vehicle: Klucel (hydroxypropylcellulose) (HPC)); 165 % of control and 178 % of control (dose: 200.0 mg/kg/injection, schedule: Q01DX005 (ip), vehicle: Klucel (hydroxypropylcellulose) (HPC)).

As for `CCSc1nc2ccc(N=Cc3ccccc3O)cc2s1`, the T/C is 99 % of control and 88 % of control (dose: 12.5 mg/kg/injection, schedule: Q01DX009 (ip), vehicle: Klucel (hydroxypropylcellulose) (HPC)); 101 % of control and 93 % of control (dose: 25.0 mg/kg/injection, schedule: Q01DX009 (ip), vehicle: Klucel (hydroxypropylcellulose) (HPC)); 106 % of control and 218 % of control and 91 % of control under setting [4].

In the case of `Cc1c2c(n(C)c1C)C(=O)C=CC2=O`, the T/C is 100 % of control (dose: 50.0 mg/kg/injection, schedule: Q01DX001 (ip), vehicle: Klucel (hydroxypropylcellulose) (HPC)) and 113 % of control (dose: 100.0 mg/kg/injection, schedule: Q01DX001 (ip), vehicle: Klucel (hydroxypropylcellulose) (HPC)).

Regarding `C=C(C)C1CCC2(C1)C(C)=CCCC2C` (stereo unspecified), the T/C is, setting by setting: (dose: 12.5 mg/kg/injection, schedule: Q01DX005 (ip), vehicle: saline) 107 % of control; (dose: 25.0 mg/kg/injection, schedule: Q01DX005 (ip), vehicle: saline) 99 % of control; (dose: 50.0 mg/kg/injection, schedule: Q01DX005 (ip), vehicle: saline) 108 % of control; (dose: 100.0 mg/kg/injection, schedule: Q01DX005 (ip), vehicle: saline) 100 % of control; (dose: 200.0 mg/kg/injection, schedule: Q01DX005 (ip), vehicle: saline) 99 % of control.

Regarding `c1ccc(N=C2SCCCS2)cc1`, the T/C by setting is: (dose: 50.0 mg/kg/injection, schedule: Q01DX009 (ip), vehicle: Klucel (hydroxypropylcellulose) (HPC)) 103 % of control; under setting [4], 97 % of control; (dose: 200.0 mg/kg/injection, schedule: Q01DX009 (ip), vehicle: Klucel (hydroxypropylcellulose) (HPC)) 105 % of control.

As for `O=C(O)CSc1ccc(NC(=O)NC2CCCCC2)cc1`, the T/C by setting is: (dose: 100.0 mg/kg/injection, schedule: Q04DX003 (ip), vehicle: saline with Tween-80) 100 % of control; (dose: 200.0 mg/kg/injection, schedule: Q04DX003 (ip), vehicle: saline with Tween-80) 100 % of control; (dose: 400.0 mg/kg/injection, schedule: Q04DX003 (ip), vehicle: saline with Tween-80) 100 % of control.

For `COc1cccc2c1C(=O)c1c(O)c(COC3CC(N)C(O)C(C)O3)cc(O)c1C2=O` (stereo unspecified), the T/C is 96 % of control (dose: 1.56 mg/kg/injection, schedule: Q04DX003 (ip), vehicle: water); 96 % of control (dose: 3.13 mg/kg/injection, schedule: Q04DX003 (ip), vehicle: water); 104 % of control (dose: 6.25 mg/kg/injection, schedule: Q04DX003 (ip), vehicle: water); 101 % of control (dose: 12.5 mg/kg/injection, schedule: Q04DX003 (ip), vehicle: water); 95 % of control (dose: 25.0 mg/kg/injection, schedule: Q04DX003 (ip), vehicle: water).
